Reference: the supplement of paper PMC10307832

Tests used:
Assay in all cases: relative viability (nuclei count vs DMSO), 5 days (fraction); higher = more cells survive
IPA-3 + Pemetrexed = compound: C1=CC=C2C(=C1)C=CC(=C2SSC3=C(C=CC4=CC=CC=C43)O)O [IPA-3] + Nc1nc2[nH]cc(CCc3ccc(C(=O)N[C@@H](CCC(=O)O)C(=O)O)cc3)c2c(=O)[nH]1 [Pemetrexed] (partner 0.2 µM)
In short: (§1)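 Lung cancer cell lines in 1536-well plates were dosed by pin tool the day after seeding, either with one drug alone or with a fixed anchor-drug dose plus five library-drug doses (not always all listed) in √10 steps. After 5 days, cells were fixed and their nuclei stained in one step (final 0.05% Triton X-100, 1% formaldehyde, 1 ug/ml Hoechst), then counted on 4× images. Relative viability is the nuclei count in treated wells divided by that in vehicle wells. Values are medians of duplicate plates.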

IPA-3 + Vorinostat = compound: C1=CC=C2C(=C1)C=CC(=C2SSC3=C(C=CC4=CC=CC=C43)O)O [IPA-3] + O=C(CCCCCCC(=O)Nc1ccccc1)NO [Vorinostat] (partner 1 µM)
In short: as §1

IPA-3 + OSI-027 = compound: C1=CC=C2C(=C1)C=CC(=C2SSC3=C(C=CC4=CC=CC=C43)O)O [IPA-3] + COc1cccc2cc(-c3nc([C@H]4CC[C@H](C(=O)O)CC4)n4ncnc(N)c34)[nH]c12 [OSI-027] (partner 0.5 µM)
In short: as §1

Doramapimod + Pictilisib = compound: Cc1ccc(-n2nc(C(C)(C)C)cc2NC(=O)Nc2ccc(OCCN3CCOCC3)c3ccccc23)cc1 [Doramapimod] + CS(=O)(=O)N1CCN(Cc2cc3nc(-c4cccc5[nH]ncc45)nc(N4CCOCC4)c3s2)CC1 [Pictilisib] (partner 1 µM)
In short: as §1

Row | Cell Line | relative viability (IPA-3 + Pemetrexed; first compound 0.2 µM) | relative viability (IPA-3 + Pemetrexed; first compound 0.6325 µM) | relative viability (IPA-3 + Pemetrexed; first compound 2 µM) | relative viability (IPA-3 + Pemetrexed; first compound 6.325 µM) | relative viability (IPA-3 + Pemetrexed; first compound 20 µM) | relative viability (IPA-3 + Vorinostat; first compound 0.2 µM) | relative viability (IPA-3 + Vorinostat; first compound 0.6325 µM) | relative viability (IPA-3 + Vorinostat; first compound 2 µM) | relative viability (IPA-3 + Vorinostat; first compound 6.325 µM) | relative viability (IPA-3 + Vorinostat; first compound 20 µM) | relative viability (IPA-3 + OSI-027; first compound 0.2 µM) | relative viability (IPA-3 + OSI-027; first compound 0.6325 µM) | relative viability (IPA-3 + OSI-027; first compound 2 µM) | relative viability (IPA-3 + OSI-027; first compound 6.325 µM) | relative viability (IPA-3 + OSI-027; first compound 20 µM) | relative viability (Doramapimod + Pictilisib; first compound 0.02 µM) | relative viability (Doramapimod + Pictilisib; first compound 0.06325 µM) | relative viability (Doramapimod + Pictilisib; first compound 0.2 µM) | relative viability (Doramapimod + Pictilisib; first compound 0.6325 µM) | relative viability (Doramapimod + Pictilisib; first compound 2 µM)
1 | NCI-H1650 | 0.346 | 0.39 | 0.398 | 0.364 | 0.466 | 1.02 | 0.47 | 0.531 | 0.555 | 0.729 | 0.763 | 0.515 | 0.676 | 0.724 | 0.727 | 0.537 | 0.629 | 0.724 | 0.329 | 0.474
2 | NCI-H1651 | 0.602 | 0.606 | 0.621 | 0.591 | 0.679 | 0.608 | 0.612 | 0.61 | 0.645 | 0.592 | 0.71 | 0.73 | 0.695 | 0.804 | 0.706 | 0.605 | 0.478 | 0.551 | 0.695 | 0.519
3 | NCI-H1666 | 0.842 | 0.853 | 0.874 | 0.796 | 0.83 | 1.07 | 1.06 | 1.07 | 1.04 | 1.03 | 0.976 | 0.839 | 0.828 | 0.743 | 0.87 | 0.502 | 0.397 | 0.37 | 0.369 | 0.312
4 | NCI-H1734 | 0.412 | 0.46 | 0.436 | 0.365 | 0.383 | 0.922 | 0.761 | 0.799 | 0.726 | 0.638 | 0.619 | 0.632 | 0.507 | 0.612 | 0.56 | 0.418 | 0.356 | 0.352 | 0.466 | 0.325
5 | NCI-H1755 | 0.621 | 0.44 | 0.495 | 0.399 | 0.398 | 0.863 | 0.61 | 0.694 | 0.63 | 0.704 | 0.831 | 0.616 | 0.688 | 0.607 | 0.702 | 0.364 | 0.382 | 0.455 | 0.447 | 0.393
6 | NCI-H1793 | 1.33 | 0.736 | 0.927 | 0.923 | 0.632 | 1.12 | 0.714 | 0.64 | 0.712 | 0.687 | 0.286 | 0.136 | 0.291 | 0.314 | 0.323 | 0.392 | 0.324 | 0.245 | 0.336 | 0.252
7 | NCI-H1915 | 0.559 | 0.463 | 0.497 | 0.461 | 0.633 | 0.581 | 0.497 | 0.505 | 0.492 | 0.533 | 0.567 | 0.564 | 0.626 | 0.582 | 0.61 | 0.945 | 0.932 | 0.989 | 0.87 | 0.785
8 | NCI-H1944 | 0.687 | 0.549 | 0.551 | 0.721 | 0.577 | 0.674 | 0.492 | 0.479 | 0.574 | 0.527 | 0.454 | 0.394 | 0.396 | 0.479 | 0.444 | 0.319 | 0.378 | 0.339 | 0.372 | 0.322
9 | NCI-H1975 | 0.318 | 0.288 | 0.305 | 0.347 | 0.274 | 0.791 | 0.672 | 0.712 | 0.83 | 0.831 | 0.936 | 0.732 | 0.675 | 0.762 | 0.706 | 0.324 | 0.32 | 0.315 | 0.373 | 0.294
10 | NCI-H1993 | 0.652 | 0.602 | 0.57 | 0.531 | 0.516 | 1.15 | 0.639 | 0.758 | 0.725 | 0.918 | 0.555 | 0.556 | 0.539 | 0.556 | 0.504 | 0.85 | 0.97 | 0.825 | 0.728 | 0.906
11 | NCI-H2009 | 1.16 | 0.974 | 1.03 | 0.958 | 1.09 | 0.858 | 0.685 | 0.89 | 0.723 | 0.642 | 0.918 | 0.6 | 0.649 | 0.59 | 0.359 | 0.812 | 0.656 | 0.826 | 0.395 | 0.823
12 | NCI-H2023 | 0.249 | 0.207 | 0.266 | 0.227 | 0.243 | 0.866 | 0.681 | 0.789 | 0.699 | 0.839 | 0.507 | 0.352 | 0.415 | 0.54 | 0.421 | 0.25 | 0.195 | 0.195 | 0.152 | 0.213
13 | NCI-H2085 | 0.89 | 0.828 | 0.864 | 0.821 | 0.993 | 0.868 | 0.756 | 0.819 | 0.726 | 0.957 | 0.982 | 0.665 | 0.742 | 0.9 | 0.817 | 0.438 | 0.424 | 0.431 | 0.45 | 0.381
14 | NCI-H2087 | 0.698 | 0.642 | 0.645 | 0.678 | 0.608 | 0.72 | 0.841 | 0.727 | 0.668 | 0.821 | 0.616 | 0.543 | 0.586 | 0.602 | 0.642 | 0.754 | 0.795 | 0.83 | 0.764 | 0.847
15 | NCI-H2126 | 0.726 | 0.706 | 0.721 | 0.678 | 0.712 | 0.822 | 0.784 | 0.746 | 0.753 | 0.892 | 0.727 | 0.748 | 0.666 | 0.688 | 0.75 | 0.487 | 0.542 | 0.488 | 0.438 | 0.401
16 | NCI-H2170 | 0.254 | 0.28 | 0.243 | 0.28 | 0.273 | 0.87 | 0.997 | 1.04 | 0.768 | 0.901 | 0.733 | 0.691 | 0.721 | 0.672 | 0.677 | 0.332 | 0.325 | 0.295 | 0.438 | 0.269
17 | NCI-H2228 | 0.369 | 0.334 | 0.336 | 0.354 | 0.341 | 0.953 | 0.809 | 0.633 | 0.552 | 0.737 | 0.991 | 0.476 | 0.62 | 0.559 | 0.435 | 0.374 | 0.563 | 0.417 | 0.366 | 0.337
18 | NCI-H2347 | 0.418 | 0.416 | 0.76 | 0.452 | 0.433 | 0.768 | 0.601 | 0.634 | 0.506 | 0.638 | 0.379 | 0.379 | 0.388 | 0.351 | 0.398 | 0.637 | 0.547 | 0.497 | 0.829 | 0.347
19 | NCI-H2405 | 1.19 | 1.07 | 1.11 | 0.998 | 0.962 | 1.17 | 1.11 | 1.11 | 0.922 | 1.04 | 0.651 | 0.644 | 0.669 | 0.691 | 0.666 | 0.435 | 0.424 | 0.401 | 0.68 | 0.356
20 | NCI-H3122 | 0.189 | 0.197 | 0.192 | 0.207 | 0.211 | 1.06 | 1.2 | 1.03 | 1.46 | 1.14 | 1.13 | 0.951 | 0.948 | 1.11 | 0.896 | 0.578 | 0.548 | 0.586 | 0.694 | 0.65
21 | PC-3 [JPC-3] | 1.12 | 1.23 | 1.18 | 1.03 | 1.03 | 0.821 | 0.816 | 0.896 | 0.73 | 0.767 | 0.8 | 0.774 | 0.76 | 0.655 | 0.735 | 0.809 | 0.772 | 0.771 | 0.897 | 0.421
22 | PC-14 | 0.123 | 0.132 | 0.135 | 0.124 | 0.132 | 0.952 | 0.759 | 0.616 | 0.68 | 0.747 | 1.54 | 0.778 | 0.749 | 0.766 | 1.17 | 0.636 | 0.644 | 0.645 | 0.655 | 0.616
23 | RERF-LC-KJ | 0.487 | 0.46 | 0.482 | 0.489 | 0.566 | 0.829 | 0.729 | 0.726 | 0.653 | 0.696 | 0.668 | 0.563 | 0.58 | 0.554 | 0.619 | 0.569 | 0.536 | 0.56 | 0.581 | 0.55
24 | SK-LU-1 | 1.16 | 0.938 | 1.01 | 0.926 | 1.14 | 0.902 | 0.779 | 0.643 | 0.75 | 0.852 | 0.361 | 0.347 | 0.341 | 0.345 | 0.354 | 0.511 | 0.627 | 0.657 | 0.726 | 0.603
25 | SK-MES-1 | 1.04 | 0.886 | 0.991 | 0.824 | 0.918 | 1.27 | 1.03 | 1.09 | 0.925 | 1.04 | 0.722 | 0.581 | 0.635 | 0.521 | 0.423 | 0.405 | 0.282 | 0.304 | 0.291 | 0.269
26 | SW 1573 | 0.964 | 0.87 | 0.921 | 0.906 | 0.162 | 1.05 | 0.655 | 0.865 | 0.958 | 0.536 | 0.867 | 0.385 | 0.528 | 0.634 | 0.183 | 0.448 | 0.375 | 0.408 | 0.423 | 0.379
